# Data: PMC4254530 (Bioorganic & medicinal chemistry, 2014)
# How the values were obtained:
# full length hCDK2/E = full length hCDK2/E (Homo sapiens, UniProt P24941); assay: γ-33P ATP filter binding assay, hCDK2/E
# DYRK1/DYRK1A = DYRK1/DYRK1A (Homo sapiens, UniProt Q13627); assay: Kinase selectivity assay DYRK1/DYRK1A; assay type: biochemical; settings: read-out: DYRK1/DYRK1A % inhibition at 20 μM
# CDK5/p25 = CDK5/p25 (Homo sapiens, UniProt Q00535); assay: ATP competitive binding assay; assay type: biochemical; settings: IC50 at increasing ATP concentrations, Lineweaver-Burk plot
# Chain of CDK5/p25 (Q00535 whole entry): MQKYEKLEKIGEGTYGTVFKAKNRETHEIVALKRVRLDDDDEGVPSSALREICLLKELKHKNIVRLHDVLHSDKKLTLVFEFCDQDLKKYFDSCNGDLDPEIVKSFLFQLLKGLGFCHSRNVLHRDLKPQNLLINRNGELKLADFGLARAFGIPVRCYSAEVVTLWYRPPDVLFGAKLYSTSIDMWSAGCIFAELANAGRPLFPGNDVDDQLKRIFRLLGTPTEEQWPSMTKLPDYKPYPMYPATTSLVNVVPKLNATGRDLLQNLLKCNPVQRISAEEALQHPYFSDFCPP
# Chain of CDK5/p25 (Q15078 99-307 partner limits assumed): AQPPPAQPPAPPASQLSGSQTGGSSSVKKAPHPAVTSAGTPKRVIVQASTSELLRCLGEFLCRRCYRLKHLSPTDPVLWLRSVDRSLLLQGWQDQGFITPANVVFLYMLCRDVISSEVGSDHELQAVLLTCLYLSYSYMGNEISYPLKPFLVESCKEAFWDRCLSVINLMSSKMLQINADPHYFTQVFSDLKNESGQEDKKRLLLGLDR
# GSK3α = GSK3α (Homo sapiens, UniProt P49840); assay: Kinase selectivity assay GSK3α; assay type: biochemical; settings: read-out: GSK3α % inhibition at 20 μM
# Chain of GSK3α (P49840 whole entry): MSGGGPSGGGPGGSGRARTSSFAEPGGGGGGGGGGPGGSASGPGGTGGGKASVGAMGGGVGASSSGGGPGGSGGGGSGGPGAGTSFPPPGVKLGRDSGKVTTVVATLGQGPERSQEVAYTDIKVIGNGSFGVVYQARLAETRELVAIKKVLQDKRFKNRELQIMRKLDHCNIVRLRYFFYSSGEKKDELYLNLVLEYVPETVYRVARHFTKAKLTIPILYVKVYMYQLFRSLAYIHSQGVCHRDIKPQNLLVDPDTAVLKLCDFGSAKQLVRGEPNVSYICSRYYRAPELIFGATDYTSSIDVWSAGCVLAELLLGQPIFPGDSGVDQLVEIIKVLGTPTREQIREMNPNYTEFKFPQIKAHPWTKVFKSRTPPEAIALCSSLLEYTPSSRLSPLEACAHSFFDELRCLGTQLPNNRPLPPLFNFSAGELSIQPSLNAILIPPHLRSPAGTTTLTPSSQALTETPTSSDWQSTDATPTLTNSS
# KDR/VEGFR2 = KDR/VEGFR2 (Homo sapiens, UniProt P35968); assay: Kinase selectivity assay KDR/VEGFR2; assay type: biochemical; settings: read-out: KDR/VEGFR2 % inhibition at 20 μM
# Chain of KDR/VEGFR2 (P35968 20-1356): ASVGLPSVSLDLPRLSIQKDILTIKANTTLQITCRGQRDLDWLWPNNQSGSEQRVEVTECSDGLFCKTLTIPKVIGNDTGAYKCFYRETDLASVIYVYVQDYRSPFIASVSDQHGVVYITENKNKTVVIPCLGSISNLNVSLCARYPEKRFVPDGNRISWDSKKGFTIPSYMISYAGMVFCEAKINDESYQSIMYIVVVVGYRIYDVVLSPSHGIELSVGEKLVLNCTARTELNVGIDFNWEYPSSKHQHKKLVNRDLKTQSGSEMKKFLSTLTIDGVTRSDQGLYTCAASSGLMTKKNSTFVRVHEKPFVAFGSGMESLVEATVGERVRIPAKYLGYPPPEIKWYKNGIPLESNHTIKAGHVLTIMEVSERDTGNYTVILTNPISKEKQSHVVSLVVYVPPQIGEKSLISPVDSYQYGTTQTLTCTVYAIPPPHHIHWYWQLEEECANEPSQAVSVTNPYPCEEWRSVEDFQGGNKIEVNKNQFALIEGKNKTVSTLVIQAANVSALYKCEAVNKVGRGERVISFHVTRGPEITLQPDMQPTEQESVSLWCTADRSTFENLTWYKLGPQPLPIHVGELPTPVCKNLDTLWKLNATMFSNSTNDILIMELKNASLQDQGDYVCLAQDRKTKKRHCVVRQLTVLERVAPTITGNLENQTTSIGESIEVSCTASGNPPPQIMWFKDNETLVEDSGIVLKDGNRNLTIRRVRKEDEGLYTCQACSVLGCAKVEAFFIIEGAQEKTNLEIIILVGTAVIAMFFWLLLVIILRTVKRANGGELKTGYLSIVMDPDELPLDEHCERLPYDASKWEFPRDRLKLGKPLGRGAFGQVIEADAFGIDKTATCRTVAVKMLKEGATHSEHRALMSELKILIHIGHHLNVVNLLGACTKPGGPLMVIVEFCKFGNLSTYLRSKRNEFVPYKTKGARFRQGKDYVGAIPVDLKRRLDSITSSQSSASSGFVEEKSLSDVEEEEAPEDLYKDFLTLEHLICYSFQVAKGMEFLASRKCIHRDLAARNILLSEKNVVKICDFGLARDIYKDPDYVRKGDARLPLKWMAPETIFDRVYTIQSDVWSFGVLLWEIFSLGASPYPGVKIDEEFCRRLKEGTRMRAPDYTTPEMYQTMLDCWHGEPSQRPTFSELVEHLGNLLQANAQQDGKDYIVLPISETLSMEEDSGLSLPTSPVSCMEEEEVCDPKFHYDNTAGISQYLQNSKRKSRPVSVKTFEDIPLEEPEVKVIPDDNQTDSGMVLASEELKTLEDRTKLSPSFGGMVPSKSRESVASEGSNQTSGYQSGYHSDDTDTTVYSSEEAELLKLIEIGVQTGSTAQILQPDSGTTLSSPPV
# PKCα = PKCα (Homo sapiens, UniProt P17252); assay: Kinase selectivity assay PKCα; assay type: biochemical
# CK1a1 = CK1a1 (Homo sapiens, UniProt P48729); assay: Kinase selectivity assay CK1a1; assay type: biochemical; settings: read-out: CK1a1 % inhibition at 20 μM
# Chain of CK1a1 (P48729 whole entry): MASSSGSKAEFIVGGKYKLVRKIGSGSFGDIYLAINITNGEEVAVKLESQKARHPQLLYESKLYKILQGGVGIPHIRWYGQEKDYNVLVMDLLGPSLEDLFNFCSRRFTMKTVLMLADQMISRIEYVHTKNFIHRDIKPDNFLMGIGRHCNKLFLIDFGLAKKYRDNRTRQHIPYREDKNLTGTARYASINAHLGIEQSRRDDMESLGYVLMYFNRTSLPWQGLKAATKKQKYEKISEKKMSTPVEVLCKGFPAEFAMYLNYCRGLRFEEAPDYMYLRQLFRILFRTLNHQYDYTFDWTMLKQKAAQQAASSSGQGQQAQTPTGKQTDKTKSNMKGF
# CDK4/D1 = CDK4/D1 (Homo sapiens, UniProt P11802); assay: Kinase selectivity assay CDK4/D1; assay type: biochemical; settings: 20 μM compound, ATP Km 90 μM
# Chain of CDK4/D1 (P11802 whole entry): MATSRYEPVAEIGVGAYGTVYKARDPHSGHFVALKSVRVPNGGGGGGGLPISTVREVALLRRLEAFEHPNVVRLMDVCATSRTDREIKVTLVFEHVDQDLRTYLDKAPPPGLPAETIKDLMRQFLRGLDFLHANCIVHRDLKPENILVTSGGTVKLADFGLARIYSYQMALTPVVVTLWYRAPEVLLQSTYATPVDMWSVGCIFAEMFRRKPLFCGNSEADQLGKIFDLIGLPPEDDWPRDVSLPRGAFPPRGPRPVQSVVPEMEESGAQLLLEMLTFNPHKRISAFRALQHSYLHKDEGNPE
# Chain of CDK4/D1 (P24385 whole entry partner): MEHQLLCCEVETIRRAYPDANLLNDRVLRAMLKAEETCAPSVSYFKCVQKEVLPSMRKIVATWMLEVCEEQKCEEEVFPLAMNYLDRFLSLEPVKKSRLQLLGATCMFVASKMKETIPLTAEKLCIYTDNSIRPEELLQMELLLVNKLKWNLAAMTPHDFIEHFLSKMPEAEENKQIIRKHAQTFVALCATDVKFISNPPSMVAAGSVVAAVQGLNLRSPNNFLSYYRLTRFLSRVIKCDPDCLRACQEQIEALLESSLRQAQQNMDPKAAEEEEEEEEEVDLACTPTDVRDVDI
# PKCε = target: T1, PKCε (Homo sapiens, UniProt Q02156); assay: Kinase selectivity assay PKCε; assay type: biochemical; settings: read-out: PKCε % inhibition at 20 μM
# T1 sequence (Q02156 1-737): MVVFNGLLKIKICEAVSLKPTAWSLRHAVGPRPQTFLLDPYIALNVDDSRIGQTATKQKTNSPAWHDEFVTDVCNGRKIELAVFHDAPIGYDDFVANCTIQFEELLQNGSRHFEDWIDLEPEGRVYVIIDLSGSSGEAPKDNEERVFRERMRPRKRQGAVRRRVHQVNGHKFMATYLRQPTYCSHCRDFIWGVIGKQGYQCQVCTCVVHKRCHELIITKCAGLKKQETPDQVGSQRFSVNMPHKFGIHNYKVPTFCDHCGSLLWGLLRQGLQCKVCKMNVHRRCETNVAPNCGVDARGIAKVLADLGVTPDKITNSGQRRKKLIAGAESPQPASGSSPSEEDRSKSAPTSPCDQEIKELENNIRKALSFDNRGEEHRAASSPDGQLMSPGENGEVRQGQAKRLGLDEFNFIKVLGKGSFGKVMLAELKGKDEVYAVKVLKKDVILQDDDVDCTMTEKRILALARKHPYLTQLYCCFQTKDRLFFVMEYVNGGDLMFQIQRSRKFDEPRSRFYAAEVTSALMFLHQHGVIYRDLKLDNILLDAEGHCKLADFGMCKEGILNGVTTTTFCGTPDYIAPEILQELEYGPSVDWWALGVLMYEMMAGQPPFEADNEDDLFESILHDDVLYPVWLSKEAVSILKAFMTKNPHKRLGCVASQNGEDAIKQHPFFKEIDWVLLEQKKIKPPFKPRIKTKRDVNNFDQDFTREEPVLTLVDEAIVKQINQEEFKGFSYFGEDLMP
# CDK1/B = CDK1/B (Homo sapiens, UniProt P06493); assay: Kinase selectivity assay CDK1/B; assay type: biochemical
# Chain of CDK1/B (P06493 whole entry): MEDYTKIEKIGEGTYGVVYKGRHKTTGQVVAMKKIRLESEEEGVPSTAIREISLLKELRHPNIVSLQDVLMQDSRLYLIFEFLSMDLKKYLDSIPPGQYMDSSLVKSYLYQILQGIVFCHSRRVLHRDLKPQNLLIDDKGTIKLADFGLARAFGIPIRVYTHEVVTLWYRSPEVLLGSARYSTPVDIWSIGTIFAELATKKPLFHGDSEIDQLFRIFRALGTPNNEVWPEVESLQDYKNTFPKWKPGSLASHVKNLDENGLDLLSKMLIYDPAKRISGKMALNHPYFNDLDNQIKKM
# Chain of CDK1/B (P14635 whole entry partner): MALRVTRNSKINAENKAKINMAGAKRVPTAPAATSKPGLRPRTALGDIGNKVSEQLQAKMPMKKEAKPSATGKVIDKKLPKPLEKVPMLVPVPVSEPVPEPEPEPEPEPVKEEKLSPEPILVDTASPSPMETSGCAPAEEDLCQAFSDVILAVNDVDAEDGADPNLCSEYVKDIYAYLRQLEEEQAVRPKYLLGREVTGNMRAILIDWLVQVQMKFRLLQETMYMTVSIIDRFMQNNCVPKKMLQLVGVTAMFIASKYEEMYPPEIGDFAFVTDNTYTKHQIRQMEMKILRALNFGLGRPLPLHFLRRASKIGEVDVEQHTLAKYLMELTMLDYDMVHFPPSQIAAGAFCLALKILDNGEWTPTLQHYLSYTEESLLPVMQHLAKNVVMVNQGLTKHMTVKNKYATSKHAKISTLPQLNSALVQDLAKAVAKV
# GSK3β = GSK3β (Homo sapiens, UniProt P49841); assay: Kinase selectivity assay GSK3β; assay type: biochemical; settings: read-out: GSK3β % inhibition at 20 μM
# Chain of GSK3β (P49841 whole entry): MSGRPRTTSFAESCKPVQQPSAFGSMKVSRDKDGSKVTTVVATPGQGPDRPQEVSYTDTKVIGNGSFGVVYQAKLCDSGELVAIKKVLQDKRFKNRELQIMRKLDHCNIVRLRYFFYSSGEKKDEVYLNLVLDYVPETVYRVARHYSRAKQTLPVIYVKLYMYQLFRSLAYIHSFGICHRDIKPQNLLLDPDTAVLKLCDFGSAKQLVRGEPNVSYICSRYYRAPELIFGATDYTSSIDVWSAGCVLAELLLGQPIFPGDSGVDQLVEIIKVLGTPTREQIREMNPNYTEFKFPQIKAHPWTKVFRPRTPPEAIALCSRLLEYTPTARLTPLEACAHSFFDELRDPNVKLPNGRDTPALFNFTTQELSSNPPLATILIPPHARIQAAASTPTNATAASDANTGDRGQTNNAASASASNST
# CDK2/A = CDK2/A (Homo sapiens, UniProt P24941); assay: Kinase selectivity assay CDK2/A; assay type: biochemical; settings: read-out: CDK2/A % inhibition at 20 μM
# CDK2/E = CDK2/E (Homo sapiens, UniProt P24941); assay: Kinase selectivity assay CDK2/E; assay type: biochemical; settings: read-out: CDK2/E % inhibition at 20 μM
# full length hCDK5/p25 = full length hCDK5/p25 (Homo sapiens, UniProt Q00535); assay: γ-33P ATP filter binding assay, hCDK5/p25; assay type: biochemical; settings: for IC50: CDK5/p25 IC50, ATP (Km) 30 μM, Table 5; for inhibition at 50 µM: read-out: CDK5/p25 inhibition @50μM
# Chain of full length hCDK5/p25 (Q00535 whole entry): as the sequence (Q00535 whole entry) above
# Chain of full length hCDK5/p25 (Q15078 99-307 partner limits assumed): as the sequence (Q15078 99-307 partner limits assumed) above
# CDK6/D1 = CDK6/D1 (Homo sapiens, UniProt Q00534); assay: Kinase selectivity assay CDK6/D1; assay type: biochemical; settings: 20 μM compound, ATP Km 30 μM
# WEE1 = WEE1 (Homo sapiens, UniProt P30291); assay: Kinase selectivity assay WEE1; assay type: biochemical
# PKA = PKA (Homo sapiens, UniProt P17612); assay: Kinase selectivity assay PKA; assay type: biochemical
Compound,inhibition at 20 µM (DYRK1/DYRK1A),mode of inhibition with respect to ATP (CDK5/p25),inhibition at 20 µM (GSK3α),inhibition at 20 µM (KDR/VEGFR2),inhibition at 20 µM (CK1a1),CDK4/D1 % inhibition at 20 μM (CDK4/D1),inhibition at 20 µM (PKCε),inhibition at 20 µM (GSK3β),inhibition at 20 µM (CDK2/A),inhibition at 20 µM (CDK2/E),IC50 (full length hCDK5/p25),inhibition at 50 µM (full length hCDK5/p25),CDK6/D1 % inhibition at 20 μM (CDK6/D1),other results
"O=C(Nc1ccccc1C(=O)O)c1cc2c(=O)[nH]c3ccccc3c2s1 [Compound 25s, 2-(4-oxo-4,5-dihydrothieno[3,2-c]quinoline-2-carboxamido)benzoic acid]",23%,ATP non-competitive inhibition,79%,88%,41%,No inhibition,7%,81%,50%,5%,4.3 µM,70.6%,No inhibition,"CDK2/E inhibition @50μM (full length hCDK2/E; 50 μM compound, ATP (Km) 65 μM, Table 5): No inhibition; PKCα % inhibition at 20 μM (PKCα; 20 μM compound, ATP Km 10 μM): No inhibition; CDK1/B % inhibition at 20 μM (CDK1/B; 20 μM compound, ATP Km 5 μM): No inhibition; WEE1 % inhibition at 20 μM (WEE1; 20 μM compound, ATP Km 50 μM): No inhibition; inhibition at 20 µM (PKA; read-out: PKA % inhibition at 20 μM): 89%"
"O=C(Nc1ccccn1)c1cc2c(Cl)nc3ccccc3c2s1 [Compound 25w, 4-chloro-N-(pyridin-2-yl)thieno[3,2-c]quinoline-2-carboxamide]",4%,ATP non-competitive inhibition,22%,44%,19%,No inhibition,4%,41%,45%,6%,3.8 µM,75.4%,No inhibition,"inhibition at 50 µM (full length hCDK2/E; read-out: CDK2/E inhibition @50μM, 50 μM compound, ATP (Km) 65 μM, Table 5): 21.8%; inhibition at 20 µM (PKCα; read-out: PKCα % inhibition at 20 μM): 1%; inhibition at 20 µM (CDK1/B; read-out: CDK1/B % inhibition at 20 μM): 35%; inhibition at 20 µM (WEE1; read-out: WEE1 % inhibition at 20 μM): 2%; PKA % inhibition at 20 μM (PKA; 20 μM compound, ATP Km 20 μM): No inhibition"
